IC50 data for ten molecules are collected here from patent US20240059700A1, “NOVEL DIACYLGLYCERIDE O-ACYLTRANSFERASE 2 INHIBITORS” (Merck Sharp & Dohme LLC, priority 2020, published 2024).

Chain of human DGAT2 (hDGAT2) (Q96PD7 whole entry): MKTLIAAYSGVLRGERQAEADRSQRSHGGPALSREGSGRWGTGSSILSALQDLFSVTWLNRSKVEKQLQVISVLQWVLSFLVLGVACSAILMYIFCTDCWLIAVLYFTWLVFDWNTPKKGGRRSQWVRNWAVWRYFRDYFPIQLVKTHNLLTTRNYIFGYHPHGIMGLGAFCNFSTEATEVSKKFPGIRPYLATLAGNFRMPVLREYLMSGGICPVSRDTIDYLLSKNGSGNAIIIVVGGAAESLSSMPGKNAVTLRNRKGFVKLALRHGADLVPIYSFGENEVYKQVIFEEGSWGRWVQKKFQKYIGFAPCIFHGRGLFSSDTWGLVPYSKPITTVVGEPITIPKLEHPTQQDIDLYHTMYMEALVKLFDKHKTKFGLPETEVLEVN

This test concerns the target human DGAT2 (hDGAT2) (Homo sapiens (Human), UniProt Q96PD7). Kind of test: DGAT2 Enzymatic Activity Assay. The format is biochemical. As to conditions: membrane prep of Sf-9 insect cells expressing hDGAT2; 13C18-triolein product by LC/MS/MS. In outline: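 Membranes from Sf-9 cells infected with untagged hDGAT2 baculovirus (8 ng/μL) incubated at rt in 100 mM Tris pH 7.0, 20 mM MgCl2, 5% ethanol with 25 μM diolein and 5 μM 13C oleoyl-CoA. 13C18-triolein product quantified by LC/MS/MS against 13C21-triolein internal standard; IC50 by 4-parameter fit.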
A word on the IC50: it is the concentration at which inhibition is half-maximal. A high value points to lower potency. `CC[C@H](C)n1nc(-c2cc(OC(F)F)ncc2F)c2ncc(C(=O)NC3(C)CCS(=O)(=O)CC3)cc21` [Example 116, (S)-1-(sec-butyl)-3-(2-(difluoromethoxy)-5-fluoropyridin-4-yl)-N-(4-methyl-1,1-dioxidotetrahydro-2H-thiopyran-4-yl)-1H-pyrazolo[4,3-b]pyridine-6-carboxamide] had an IC50 of 11.5 nM.

`CC(C)n1nc(-c2cc(C3CC3)ccc2F)c2ncc(C(=O)NC3(C)CS(=O)(=O)C3)cc21` [Example 117, 3-(5-cyclopropyl-2-fluorophenyl)-1-isopropyl-N-(3-methyl-1,1-dioxidothietan-3-yl)-1H-pyrazolo[4,3-b]pyridine-6-carboxamide] returned an IC50 of 9.6 nM.

`CC(C)n1nc(-c2cc(OC(F)(F)F)ccc2F)c2ncc(C(=O)NC3(C)CCS(=O)(=O)CC3)cc21` [Example 118, 3-(2-fluoro-5-(trifluoromethoxy)phenyl)-1-isopropyl-N-(4-methyl-1,1-dioxidotetrahydro-2H-thiopyran-4-yl)-1H-pyrazolo[4,3-b]pyridine-6-carboxamide] showed an IC50 of 20 nM.

`CC(C)n1nc(-c2cccc(OC(F)(F)F)c2)c2ncc(C(=O)NC3(C)CS(=O)(=O)C3)cc21` [Example 119, 1-isopropyl-N-(3-methyl-1,1-dioxidothietan-3-yl)-3-(3-(trifluoromethoxy)phenyl)-1H-pyrazolo[4,3-b]pyridine-6-carboxamide] displayed an IC50 of 97 nM.

Regarding `CC(C)n1nc(-c2cc(OC(F)F)ccc2Cl)c2ncc(C(=O)NC3(C)CS(=O)(=O)C3)cc21` [Example 120, 3-(2-chloro-5-(difluoromethoxy)phenyl)-1-isopropyl-N-(3-methyl-1,1-dioxidothietan-3-yl)-1H-pyrazolo[4,3-b]pyridine-6-carboxamide], the IC50 was 7.2 nM.

`CC(C)n1nc(-c2cc(OCC(F)F)ncc2F)c2ncc(C(=O)NC3(C)CS(=O)(=O)C3)cc21` [Example 121, 3-(2-(2,2-difluoroethoxy)-5-fluoropyridin-4-yl)-1-isopropyl-N-(3-methyl-1,1-dioxidothietan-3-yl)-1H-pyrazolo[4,3-b]pyridine-6-carboxamide]: it took 8.3 nM to reach half-maximal inhibition (IC50).

For the molecule `CC(C)n1nc(-c2cc(OCC(F)(F)F)ncc2F)c2ncc(C(=O)NC3(C)CS(=O)(=O)C3)cc21` [Example 122, 3-(5-fluoro-2-(2,2,2-trifluoroethoxy)pyridin-4-yl)-1-isopropyl-N-(3-methyl-1,1-dioxidothietan-3-yl)-1H-pyrazolo[4,3-b]pyridine-6-carboxamide], the IC50 worked out at 7.7 nM.

Turning to `Cc1nc2c(-c3nn(C(C)C)c4cc(C(=O)NC5(C)CS(=O)(=O)C5)cnc34)cccc2o1` [Example 123, 1-isopropyl-N-(3-methyl-1,1-dioxidothietan-3-yl)-3-(2-methylbenzo[d]oxazol-4-yl)-1H-pyrazolo[4,3-b]pyridine-6-carboxamide], it took 487 nM to reach half-maximal inhibition (IC50).

Consider `CC(=O)Nc1ccc(-c2nn(C(C)C)c3cc(C(=O)NC4(C)CS(=O)(=O)C4)cnc23)cc1O` [Example 124, 3-(4-acetamido-3-hydroxyphenyl)-1-isopropyl-N-(3-methyl-1,1-dioxidothietan-3-yl)-1H-pyrazolo[4,3-b]pyridine-6-carboxamide], for which the IC50 stood at 620 nM.

As to `CC(C)n1nc(-c2ccnc(N(C)C)c2)c2ncc(C(=O)NC3(C)CS(=O)(=O)C3)cc21` [Example 125, 3-(2-(dimethylamino)pyridin-4-yl)-1-isopropyl-N-(3-methyl-1,1-dioxidothietan-3-yl)-1H-pyrazolo[4,3-b]pyridine-6-carboxamide], the IC50 was > 1000 nM.
